From patent US20060287383A1, “Substance exhibiting antidepressant property” (priority 2003, published 2006)

Experiments:
[1] = tested on: white outbred male rats; assay: involuntary swimming in a reservoir with freely moving wheels according to Nomura; format: in vivo
Protocol: The method of involuntary swimming in a reservoir with freely moving wheels (Nomura S., Shimizu J., Kinjo M. et al. A new behavioral test for antidepressant drugs//Eur. J. Pharmacol.—1982.—v. 83.—N 34.—p. 171-175) is widely used for assessing the action of antidepressant agents. The installation is a reservoir having dimensions of 64×30×42 cm and divided into four equal sections where wheels are located. The reservoir is filled with water at the temperature of 25° C., coming to the medium line of the wheels. The studies have been conducted with white outbred male rats having the weight from 230 to 250 grams. The rats have been put into each section in the position where their heads are opposite to the wheels, and then the wheel speed has been recorded for 10 minutes with the use of electromechanical counters. The number of wheel revolutions made by the rat for 10 minutes is recorded.
This study has been conducted with animals from different groups. The rats from the experimental groups have received single doses of phenotropyl in the amounts of 25, 50 and 100 mg/kg or the standard amitriptyline medication in the amount of 10 mg/kg (ampoule solution made by Spofa, the Czech Republic) in the volume corresponding to the dosage. The animals from the control group have received distilled water in the same dosage. All the substances have been given intragastrically 40 minutes before the an experiment.

[2] = tested on: white outbred male mice; assay: haloperidol catalepsy method; format: in vivo
Protocol: As one of the indicators for antidepressant antagonism in relation to depriming effects of neuroleptics, neuroleptic-induced catalepsy is used. The maintenance of catalepsy in animals is assessed by their ability to maintain set or unusual poses for a definite time (Morpurgo C. Effects of antiparkinson drugs on phenothiazine induced catatonia reaction//Arch. Int Pharmacodyn., 1962, vol. 137 No 1-2, p. 84-94). Reduction or prevention of catalepsy is one of the factors showing antidepressant activity in studied substances.
The studies have been conducted with white outbred male mice having the weight from 18 to 24 grams. Haloperidol is introduced intraperitoneally in a single dose of 0.5 mg/kg. Phenotropyl has been introduced intraperitoneally in doses of 50, 100 and 200 mg/kg in 15 minutes after the introduction of haloperidol. The catalepsy intensity has been assessed by time (in seconds) of keeping the animals in an uncomfortable pose where their front legs have been put onto a bar having the height of 4 cm, in 60, 120 and 180 minutes after introducing the said medications. It is shown in Table 4 that phenotropyl clearly antagonizes haloperidol-induced catalepsy.

[3] = tested on: patients having depressive illnesses; assay: clinical study, Hamilton rating scale for depressive illness; format: in vivo, human
Protocol: The Hamilton rating scale for primary depressive illness (Hamilton M. Development of a rating scale for primary depressive illness//Br J Soc Clin Psychol. 1967 December;6(4):278-96) is one of the most widely used scales for assessing depression in the clinical practice.
The material for clinical studies has comprised two homogenous groups of patients having depressive illnesses (40 persons) aged 20-42, out of which 20 patients have taken amitriptyline in the daily dose of 75 mg (25 mg three times a day), and 20 patients have taken phenotropyl in the daily dose of 100 mg as a single dose in the morning time. For a comparative study of the medications antidepressant activity the patients have been enlisted for the study according to the following criteria: the informed consent is available, a light or moderate depressive episode (F32.0 ? F32.1 according to MCB-10) is present, the total score under the Hamilton rating scale is not lower than 18, no contraindications to taking amitriptyline and phenotropyl. The patients have been relatively uniformly assigned to the said groups according to meaningful factors, such as sex and age, time for which the condition exists and syndrome characteristics. The condition existence time varied from 1 to 2 years. The therapy efficiency has been assessed on the basis of a degree of reduction of the total score under the Hamilton scale, namely: full effect—reduction by more than 50%; partial reduction—from 25 to 50%; no effect—reduction by less than 25%. The condition of the patients has been assessed during the background studies and at each 7th day of the therapy for the whole 6 weeks of the therapy. In total, seven examinations have been carried out. The comparative data on the general efficiency pf the medications, as given in Table 5, evidence a rather quick reduction of the depressive illness psychopathological symptoms in the process of administering phenotropyl and amitriptyline. However, the antidepressant effect of phenotropyl has been more pronounced on the 7th and 14th days of the therapy. The full reduction has been attained in 25% and 40% of the patients, respectively. […] From the 28th day of the therapy the number of the patients experiencing the maximum effect has not been changed either on the 35th or the 42nd days of the therapy. Out of 20% of the patients experiencing a partial reduction of the depressive symptoms, 15% have been patients with the reduction from 25% to 50%, and 5%—patients with the reduction by less than 25%.

NC(=O)CN1CC(c2ccccc2)CC1=O (stereo not shown) [Phenotropyl, N-carbamoyl-methyl-4-phenyl-2-pyrrolidone]
Number of wheel revolutions for 10 minutes ([1]; single dose 25 mg/kg intragastrically 40 minutes before): 89.3 ± 17.2
Number of wheel revolutions for 10 minutes ([1]; single dose 50 mg/kg intragastrically 40 minutes before): 102.7 ± 16.1
Number of wheel revolutions for 10 minutes ([1]; single dose 100 mg/kg intragastrically 40 minutes before, 100 mg/kg): 121.8 ± 23.7
Number of wheel revolutions for 10 minutes ([1]; single dose 100 mg/kg intragastrically 40 minutes before, listed as phenotropyl, 100 mg/kg): 121.8±23.7
Catalepsy ([2]; haloperidol 0.5 mg/kg + phenotropyl 50 mg/kg intraperitoneally, 60 minutes): 0.0 ± 0.0 s
Catalepsy ([2]; haloperidol 0.5 mg/kg + phenotropyl 50 mg/kg intraperitoneally, 120 minutes): 8.2 ± 3.2 s
Catalepsy ([2]; haloperidol 0.5 mg/kg + phenotropyl 50 mg/kg intraperitoneally, 180 minutes): 4.5 ± 2.5 s
Catalepsy ([2]; haloperidol 0.5 mg/kg + phenotropyl 100 mg/kg intraperitoneally, 60 minutes): 0.0 ± 0.0 s
Catalepsy ([2]; haloperidol 0.5 mg/kg + phenotropyl 100 mg/kg intraperitoneally, 120 minutes): 2.0 ± 1.0 s
Catalepsy ([2]; haloperidol 0.5 mg/kg + phenotropyl 100 mg/kg intraperitoneally, 180 minutes): 0.0 ± 0.0 s
Catalepsy ([2]; haloperidol 0.5 mg/kg + phenotropyl 200 mg/kg intraperitoneally, 60 minutes): 0.0 ± 0.0 s
Catalepsy ([2]; haloperidol 0.5 mg/kg + phenotropyl 200 mg/kg intraperitoneally, 120 minutes): 11.8 ± 2.1 s
Catalepsy ([2]; haloperidol 0.5 mg/kg + phenotropyl 200 mg/kg intraperitoneally, 180 minutes): 0.0 ± 0.0 s
reduction of catalepsy development level ([2]; phenotropyl 50 mg/kg, 120 minutes): 3.2 times
reduction of catalepsy development level ([2]; phenotropyl 50 mg/kg, 180 minutes): 13.2 times
reduction of catalepsy development level ([2]; phenotropyl 100 mg/kg, 120 minutes): 14 times
development of catalepsy ([2]; phenotropyl dose of 100 or 200 mg/kg, 180 minutes): fully stopping its development
development of catalepsy ([2]; phenotropyl doses of 50 and 100 mg/kg, 60 minutes): fully prevents the development of catalepsy
sedative and cholinergic effects ([3]; 100 mg daily, 6 weeks of therapy): no cases of sedative and cholinergic effects have been recorded
time at which full reduction is attained in 70% and 80% of the patients, compared with amitriptyline ([3]; 100 mg daily, 21st and 28th days of the therapy): two weeks earlier than for the amitriptyline therapy
patients (%) with reduction of total Hamilton score 25-49 ([3]; 7th therapy day, 100 mg daily): 25%
patients (%) with reduction of total Hamilton score <25 ([3]; 7th therapy day, 100 mg daily): 75%
patients (%) with reduction of total Hamilton score ≧50 ([3]; 7th therapy day, 100 mg daily): 0%
patients (n) with reduction of total Hamilton score 25-49 ([3]; 7th therapy day, 100 mg daily): 5
patients (n) with reduction of total Hamilton score <25 ([3]; 7th therapy day, 100 mg daily): 15
patients (n) with reduction of total Hamilton score ≧50 ([3]; 7th therapy day, 100 mg daily): 0
patients (%) with reduction of total Hamilton score ≧50 ([3]; 7th therapy day, 100 mg daily, listed as phenotropyl): 25%
patients (%) with reduction of total Hamilton score 25-49 ([3]; 14th therapy day, 100 mg daily): 30%
patients (%) with reduction of total Hamilton score <25 ([3]; 14th therapy day, 100 mg daily): 30%
patients (%) with reduction of total Hamilton score ≧50 ([3]; 14th therapy day, 100 mg daily): 40%
patients (n) with reduction of total Hamilton score 25-49 ([3]; 14th therapy day, 100 mg daily): 6
patients (n) with reduction of total Hamilton score <25 ([3]; 14th therapy day, 100 mg daily): 6
patients (n) with reduction of total Hamilton score ≧50 ([3]; 14th therapy day, 100 mg daily): 8
patients (%) with reduction of total Hamilton score 25-49 ([3]; 21st therapy day, 100 mg daily): 10%
patients (%) with reduction of total Hamilton score <25 ([3]; 21st therapy day, 100 mg daily): 20%
patients (%) with reduction of total Hamilton score ≧50 ([3]; 21st therapy day, 100 mg daily): 70%
patients (n) with reduction of total Hamilton score 25-49 ([3]; 21st therapy day, 100 mg daily): 2
patients (n) with reduction of total Hamilton score <25 ([3]; 21st therapy day, 100 mg daily): 4
patients (n) with reduction of total Hamilton score ≧50 ([3]; 21st therapy day, 100 mg daily): 14
patients (%) with reduction of total Hamilton score 25-49 ([3]; 28th therapy day, 100 mg daily): 15%
patients (%) with reduction of total Hamilton score <25 ([3]; 28th therapy day, 100 mg daily): 5%
patients (%) with reduction of total Hamilton score ≧50 ([3]; 28th therapy day, 100 mg daily): 80%
patients (n) with reduction of total Hamilton score 25-49 ([3]; 28th therapy day, 100 mg daily): 3
patients (n) with reduction of total Hamilton score <25 ([3]; 28th therapy day, 100 mg daily): 1
patients (n) with reduction of total Hamilton score ≧50 ([3]; 28th therapy day, 100 mg daily): 16
patients (%) with reduction of total Hamilton score 25-49 ([3]; 35th therapy day, 100 mg daily): 15%
patients (%) with reduction of total Hamilton score <25 ([3]; 35th therapy day, 100 mg daily): 5%
patients (%) with reduction of total Hamilton score ≧50 ([3]; 35th therapy day, 100 mg daily): 80%
patients (n) with reduction of total Hamilton score 25-49 ([3]; 35th therapy day, 100 mg daily): 3
patients (n) with reduction of total Hamilton score <25 ([3]; 35th therapy day, 100 mg daily): 1
patients (n) with reduction of total Hamilton score ≧50 ([3]; 35th therapy day, 100 mg daily): 16
patients (%) with reduction of total Hamilton score 25-49 ([3]; 42nd therapy day, 100 mg daily): 15%
patients (%) with reduction of total Hamilton score <25 ([3]; 42nd therapy day, 100 mg daily): 5%
patients (%) with reduction of total Hamilton score ≧50 ([3]; 42nd therapy day, 100 mg daily): 80%
patients (n) with reduction of total Hamilton score 25-49 ([3]; 42nd therapy day, 100 mg daily): 3
patients (n) with reduction of total Hamilton score <25 ([3]; 42nd therapy day, 100 mg daily): 1
patients (n) with reduction of total Hamilton score ≧50 ([3]; 42nd therapy day, 100 mg daily): 16
tolerance and withdrawal syndrome ([3]; course administration): does not induce tolerance and the withdrawal syndrome
